Patent US12077503B2, “Substituted cyclic amides and their use as herbicides” (FMC CORPORATION, priority 2015, dated 2024)

Assays:
Format in all cases: in vivo
[1] = test system: giant foxtail (Setaria faberi); assay: Test G Post-Emergence Protocol; details: Setaria faberi, post-emergence, 312 h; for pest or weed control at 15.625 g/ha: 15.625 g ai/ha, evaluated after 13 days (100=total damage to plant; 0=no damage to plant), read-out: Foxtail, Giant damage rating; for pest or weed control at 62.5 g/ha: 62.5 g ai/ha, read-out: Foxtail, Giant damage rating (100=total damage to plant; 0=no damage to plant); for pest or weed control at 62.5 g/ha / pest or weed control at 250 g/ha: evaluated after 13 days; for pest or weed control at 250 g/ha: 250 g ai/ha, read-out: damage to plant, Foxtail, Giant (100=total damage to plant; 0=no damage to plant)
Outline: (§1)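 Seedlings grown 8 days in soil in a glasshouse (24/16 °C day/night, 14 h light, 65% humidity) were sprayed post-emergence with compound in acetone/water 50:50 plus 0.5% Tween 20 at 15.625, 62.5 or 250 g/ha. Damage was scored after 13 days on a 0–100 scale (100 = total damage).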

[2] = test system: redroot pigweed (Amaranthus retroflexus); assay: Test G Post-Emergence Protocol; details: Amaranthus retroflexus, post-emergence, 312 h; for pest or weed control at 15.625 g/ha: 15.625 g ai/ha, evaluated after 13 days (100=total damage to plant; 0=no damage to plant), read-out: Pigweed, Redroot damage rating; for pest or weed control at 62.5 g/ha: 62.5 g ai/ha, read-out: Pigweed, Redroot damage rating (100=total damage to plant; 0=no damage to plant); for pest or weed control at 62.5 g/ha / pest or weed control at 250 g/ha: evaluated after 13 days; for pest or weed control at 250 g/ha: 250 g ai/ha, read-out: damage to plant, Pigweed, Redroot (100=total damage to plant; 0=no damage to plant)
Outline: as §1

[3] = test system: barnyardgrass (Echinochloa crus-galli); assay: Test G Post-Emergence Protocol; details: Echinochloa crus-galli, post-emergence, 312 h; for pest or weed control at 15.625 g/ha: 15.625 g ai/ha, evaluated after 13 days (100=total damage to plant; 0=no damage to plant), read-out: Barnyardgrass damage rating; for pest or weed control at 62.5 g/ha: 62.5 g ai/ha, read-out: Barnyardgrass damage rating (100=total damage to plant; 0=no damage to plant); for pest or weed control at 62.5 g/ha / pest or weed control at 250 g/ha: evaluated after 13 days; for pest or weed control at 250 g/ha: 250 g ai/ha, read-out: damage to plant, Barnyardgrass (100=total damage to plant; 0=no damage to plant)
Outline: as §1

[4] = test system: ivy-leaved morning glory (Ipomoea hederacea); assay: Test G Post-Emergence Protocol; details: Ipomoea, post-emergence, 312 h; for pest or weed control at 15.625 g/ha: 15.625 g ai/ha, evaluated after 13 days (100=total damage to plant; 0=no damage to plant), read-out: Morningglory, Ivy-leaved damage rating; for pest or weed control at 62.5 g/ha: 62.5 g ai/ha, read-out: Morningglory, Ivy-leaved damage rating (100=total damage to plant; 0=no damage to plant); for pest or weed control at 62.5 g/ha / pest or weed control at 250 g/ha: evaluated after 13 days; for pest or weed control at 250 g/ha: 250 g ai/ha, read-out: damage to plant, Morningglory, Ivy-leaved (100=total damage to plant; 0=no damage to plant)
Outline: as §1

corn (Zea mays) [5] = assay: Test G Post-Emergence Protocol; details: Zea mays, post-emergence, 312 h; for plant injury at 15.625 g/ha: 15.625 g ai/ha, evaluated after 13 days (100=total damage to plant; 0=no damage to plant), read-out: Corn damage rating; for plant injury at 62.5 g/ha: 62.5 g ai/ha, read-out: Corn damage rating (100=total damage to plant; 0=no damage to plant); for plant injury at 62.5 g/ha / plant injury at 250 g/ha: evaluated after 13 days; for plant injury at 250 g/ha: 250 g ai/ha, read-out: damage to plant, Corn (100=total damage to plant; 0=no damage to plant)
Outline: as §1

[6] = test system: velvetleaf (Abutilon theophrasti); assay: Test G Post-Emergence Protocol; details: Abutilon theophrasti, post-emergence, 312 h; for pest or weed control at 15.625 g/ha: 15.625 g ai/ha, evaluated after 13 days (100=total damage to plant; 0=no damage to plant), read-out: Velvetleaf damage rating; for pest or weed control at 62.5 g/ha: 62.5 g ai/ha, read-out: Velvetleaf damage rating (100=total damage to plant; 0=no damage to plant); for pest or weed control at 62.5 g/ha / pest or weed control at 250 g/ha: evaluated after 13 days; for pest or weed control at 250 g/ha: 250 g ai/ha, read-out: damage to plant, Velvetleaf (100=total damage to plant; 0=no damage to plant)
Outline: as §1

[7] = test system: giant foxtail (Setaria faberi); assay: Test G Pre-Emergence Protocol; details: Setaria faberi, pre-emergence, 312 h, evaluated after 13 days; for pest or weed control at 15.625 g/ha: 15.625 g ai/ha; for pest or weed control at 15.625 g/ha / pest or weed control at 250 g/ha: read-out: Foxtail, Giant damage rating (100=total damage to plant; 0=no damage to plant); for pest or weed control at 62.5 g/ha: 62.5 g ai/ha, 100=total damage to plant, 0=no damage to plant, read-out: plant damage rating, Foxtail, Giant; for pest or weed control at 250 g/ha: 250 g ai/ha
Outline: (§2)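 Visual injury (0–100) at day 13 after a single pre-emergence spray. Rates: 15.625, 62.5, 250 g/ha in acetone–water 50:50 with 0.5% Tween 20. Growth conditions: 24/16° C, 14 h light, 65% humidity.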

[8] = test system: redroot pigweed (Amaranthus retroflexus); assay: Test G Pre-Emergence Protocol; details: Amaranthus retroflexus, pre-emergence, 312 h, evaluated after 13 days; for pest or weed control at 15.625 g/ha: 15.625 g ai/ha; for pest or weed control at 15.625 g/ha / pest or weed control at 250 g/ha: read-out: Pigweed, Redroot damage rating (100=total damage to plant; 0=no damage to plant); for pest or weed control at 62.5 g/ha: 62.5 g ai/ha, 100=total damage to plant, 0=no damage to plant, read-out: plant damage rating, Pigweed, Redroot; for pest or weed control at 250 g/ha: 250 g ai/ha
Outline: as §2

[9] = test system: barnyardgrass (Echinochloa crus-galli); assay: Test G Pre-Emergence Protocol; details: Echinochloa crus-galli, pre-emergence, 312 h, evaluated after 13 days; for pest or weed control at 15.625 g/ha: 15.625 g ai/ha, read-out: Barnyard grass damage rating (100=total damage to plant; 0=no damage to plant); for pest or weed control at 62.5 g/ha: 62.5 g ai/ha, 100=total damage to plant, 0=no damage to plant, read-out: plant damage rating, Barnyardgrass; for pest or weed control at 250 g/ha: 250 g ai/ha, read-out: Barnyardgrass damage rating (100=total damage to plant; 0=no damage to plant)
Outline: as §2

[10] = test system: ivy-leaved morning glory (Ipomoea hederacea); assay: Test G Pre-Emergence Protocol; details: Ipomoea, pre-emergence, 312 h, evaluated after 13 days; for pest or weed control at 15.625 g/ha: 15.625 g ai/ha, read-out: Morning-glory, Ivy-leaved damage rating (100=total damage to plant; 0=no damage to plant); for pest or weed control at 62.5 g/ha: 62.5 g ai/ha, 100=total damage to plant, 0=no damage to plant, read-out: plant damage rating, Morningglory, Ivy-leaved; for pest or weed control at 250 g/ha: 250 g ai/ha, read-out: Morningglory, Ivy-leaved damage rating (100=total damage to plant; 0=no damage to plant)
Outline: as §2

corn (Zea mays) [11] = assay: Test G Pre-Emergence Protocol; details: Zea mays, pre-emergence, 312 h, evaluated after 13 days; for plant injury at 15.625 g/ha: 15.625 g ai/ha; for plant injury at 15.625 g/ha / plant injury at 250 g/ha: read-out: Corn damage rating (100=total damage to plant; 0=no damage to plant); for plant injury at 62.5 g/ha: 62.5 g ai/ha, 100=total damage to plant, 0=no damage to plant, read-out: plant damage rating, Corn; for plant injury at 250 g/ha: 250 g ai/ha
Outline: as §2

[12] = test system: velvetleaf (Abutilon theophrasti); assay: Test G Pre-Emergence Protocol; details: Abutilon theophrasti, pre-emergence, 312 h, evaluated after 13 days; for pest or weed control at 15.625 g/ha: 15.625 g ai/ha; for pest or weed control at 15.625 g/ha / pest or weed control at 250 g/ha: read-out: Velvetleaf damage rating (100=total damage to plant; 0=no damage to plant); for pest or weed control at 62.5 g/ha: 62.5 g ai/ha, 100=total damage to plant, 0=no damage to plant, read-out: plant damage rating, Velvetleaf; for pest or weed control at 250 g/ha: 250 g ai/ha
Outline: as §2

Cc1cnc(NC(=O)[C@@H]2C(=O)N(C)C[C@H]2c2ccc(C(F)(F)F)cc2)cn1 (racemic) [Compound 1648]
pest or weed control at 15.625 g/ha [1]: 0%
pest or weed control at 62.5 g/ha [1]: 0%
pest or weed control at 250 g/ha [1]: 0%
pest or weed control at 15.625 g/ha [2]: 0%
pest or weed control at 62.5 g/ha [2]: 0%
pest or weed control at 250 g/ha [2]: 0%
pest or weed control at 15.625 g/ha [3]: 0%
pest or weed control at 62.5 g/ha [3]: 0%
pest or weed control at 250 g/ha [3]: 0%
pest or weed control at 15.625 g/ha [4]: 0%
pest or weed control at 62.5 g/ha [4]: 0%
pest or weed control at 250 g/ha [4]: 0%
plant injury at 15.625 g/ha (corn (Zea mays) [5]): 0%
plant injury at 62.5 g/ha (corn (Zea mays) [5]): 0%
plant injury at 250 g/ha (corn (Zea mays) [5]): 0%
pest or weed control at 15.625 g/ha [6]: 0%
pest or weed control at 62.5 g/ha [6]: 0%
pest or weed control at 250 g/ha [6]: 0%
pest or weed control at 15.625 g/ha [7]: 0%
pest or weed control at 62.5 g/ha [7]: 0%
pest or weed control at 250 g/ha [7]: 0%
pest or weed control at 15.625 g/ha [8]: 0%
pest or weed control at 62.5 g/ha [8]: 0%
pest or weed control at 250 g/ha [8]: 0%
pest or weed control at 15.625 g/ha [9]: 0%
pest or weed control at 62.5 g/ha [9]: 0%
pest or weed control at 250 g/ha [9]: 0%
pest or weed control at 15.625 g/ha [10]: 0%
pest or weed control at 62.5 g/ha [10]: 0%
pest or weed control at 250 g/ha [10]: 0%
plant injury at 15.625 g/ha (corn (Zea mays) [11]): 0%
plant injury at 62.5 g/ha (corn (Zea mays) [11]): 0%
plant injury at 250 g/ha (corn (Zea mays) [11]): 0%
pest or weed control at 15.625 g/ha [12]: 0%
pest or weed control at 62.5 g/ha [12]: 0%
pest or weed control at 250 g/ha [12]: 0%

CN1C[C@H](c2ccc(C(F)(F)F)cc2)[C@@H](C(=O)Nc2ncc(F)cc2F)C1=O (racemic) [Compound 1452]
pest or weed control at 15.625 g/ha [1]: 0%
pest or weed control at 62.5 g/ha [1]: 0%
pest or weed control at 250 g/ha [1]: 10%
pest or weed control at 15.625 g/ha [2]: 0%
pest or weed control at 62.5 g/ha [2]: 0%
pest or weed control at 250 g/ha [2]: 10%
pest or weed control at 15.625 g/ha [3]: 0%
pest or weed control at 62.5 g/ha [3]: 0%
pest or weed control at 250 g/ha [3]: 0%
pest or weed control at 15.625 g/ha [4]: 0%
pest or weed control at 62.5 g/ha [4]: 10%
pest or weed control at 250 g/ha [4]: 10%
plant injury at 15.625 g/ha (corn (Zea mays) [5]): 0%
plant injury at 62.5 g/ha (corn (Zea mays) [5]): 0%
plant injury at 250 g/ha (corn (Zea mays) [5]): 0%
pest or weed control at 15.625 g/ha [6]: 0%
pest or weed control at 62.5 g/ha [6]: 0%
pest or weed control at 250 g/ha [6]: 10%
pest or weed control at 15.625 g/ha [7]: 0%
pest or weed control at 62.5 g/ha [7]: 0%
pest or weed control at 250 g/ha [7]: 60%
pest or weed control at 15.625 g/ha [8]: 0%
pest or weed control at 62.5 g/ha [8]: 0%
pest or weed control at 250 g/ha [8]: 0%
pest or weed control at 15.625 g/ha [9]: 0%
pest or weed control at 62.5 g/ha [9]: 0%
pest or weed control at 250 g/ha [9]: 50%
pest or weed control at 15.625 g/ha [10]: 0%
pest or weed control at 62.5 g/ha [10]: 0%
pest or weed control at 250 g/ha [10]: 0%
plant injury at 15.625 g/ha (corn (Zea mays) [11]): 0%
plant injury at 62.5 g/ha (corn (Zea mays) [11]): 0%
plant injury at 250 g/ha (corn (Zea mays) [11]): 0%
pest or weed control at 15.625 g/ha [12]: 0%
pest or weed control at 62.5 g/ha [12]: 0%
pest or weed control at 250 g/ha [12]: 30%
